Laboratory results taken from patent US20080033020A1, “3-Pyridinylethylbenzamide Derivatives as Fungicides” (priority 2004, published 2008).

How the values were obtained:
Botrytis cinerea = assay: Effectiveness on Botrytis cinerea (comparative compounds); assay type: in vivo; details: at 330 ppm; comparative compounds of WO 01/11965
Peronospora parasitica = assay: Efficacy against Peronospora parasitica (comparative compound); assay type: in vivo; details: at 330 ppm; comparative compound of WO 01/11965
Alternaria brassicae = assay: In vivo test on Alternaria brassicae (leaf spot of crucifers) on radish plants; details: at 330 ppm; comparative compounds of WO 01/11965
Protocol: The active ingredient tested is prepared by potter homogenisation in a concentrated suspension type formulation at 100 g/l. This suspension is then diluted with water to obtain the desired active material concentration.
Radish plants (Pernot variety) in starter cups, sown on a 50/50 peat soil-pozzolana substrate and grown at 18-20° C., are treated at the cotyledon stage by spraying with the aqueous suspension described above.
Plants, used as controls, are treated with an aqueous solution not containing the active material.
After 24 hours, the plants are contaminated by spraying them with an aqueous suspension of Alternaria brassicae spores (40,000 spores per cm^3). The spores are collected from a 12 to 13 days-old culture.
The contaminated radish plants are incubated for 6-7 days at about 18° C., under a humid atmosphere.
Grading is carried out 6 to 7 days after the contamination, in comparison with the control plants.
Under these conditions, good (at least 50%) or total protection is observed at a dose of 330 ppm or 110 ppm with the following compounds: 1, 2, 3, 4, 5, 6, 7, 8, 9, 10 and 11.

| Compound | effectiveness on Botrytis cinerea (Botrytis cinerea) | efficacy against Peronospora parasitica (Peronospora parasitica) | effectiveness on Alternaria brassicae (Alternaria brassicae) |
| --- | --- | --- | --- |
| CCNC(=O)C(Cc1ncc(C(F)(F)F)cc1Cl)NC(=O)c1ccc(Cl)cc1 (stereo not drawn) [compound 306, N-{1-ethylcarbamoyl-2-[3-chloro-5-(trifluoromethyl)-2-pyridinyl]ethyl}-4-chlorobenzamide] | zero effectiveness | – | – |
| CNC(=O)C(Cc1ncc(C(F)(F)F)cc1Cl)NC(=O)c1ccc(OC)cc1 (stereo not drawn) [compound 315, N-{1-methylcarbamoyl-2-[3-chloro-5-(trifluoromethyl)-2-pyridinyl]ethyl}-4-methoxybenzamide] | zero effectiveness | – | – |
| O=C(Cc1cccs1)NCc1ncc(C(F)(F)F)cc1Cl [compound 101, N-{[3-chloro-5-(trifluoromethyl)-2-pyridinyl]methyl}-5-thienylacetamide] | no efficacy | no efficacy | poor efficacy |
| CNC(=O)C(Cc1ncc(C(F)(F)F)cc1Cl)NC(=O)c1ccccc1 (stereo not drawn) [compound 314, N-{1-methylcarbamoyl-2-[3-chloro-5-(trifluoromethyl)-2-pyridinyl]ethyl}-benzamide] | zero effectiveness | – | – |
| CNC(=O)C(Cc1ncc(C(F)(F)F)cc1Cl)NC(=O)c1ccc(-c2ccccc2)cc1 (stereo not drawn) [compound 316, N-{1-methylcarbamoyl-2-[3-chloro-5-(trifluoromethyl)-2-pyridinyl]-ethyl}-4-phenylbenzamide] | zero effectiveness | – | poor effectiveness |
| CCNC(=O)C(Cc1ncc(C(F)(F)F)cc1Cl)NC(=O)c1cccc([N+](=O)[O-])c1 (stereo not drawn) [compound 307, N-{1-ethylcarbamoyl-2-[3-chloro-5-(trifluoromethyl)-2-pyridinyl]ethyl}-3-nitrobenzamide] | zero effectiveness | – | poor effectiveness |
| CCNC(=O)C(Cc1ncc(C(F)(F)F)cc1Cl)NC(=O)c1ccccc1Br (stereo not drawn) [compound 310, N-{1-ethylcarbamoyl-2-[3-chloro-5-(trifluoromethyl)-2-pyridinyl]ethyl}-2-bromobenzamide] | zero effectiveness | – | – |
| CCNC(=O)C(Cc1ncc(C(F)(F)F)cc1Cl)NC(=O)c1ccccc1 (stereo not drawn) [compound 304, N-{1-ethylcarbamoyl-2-[3-chloro-5-(trifluoromethyl)-2-pyridinyl]-ethyl}-benzamide] | zero effectiveness | – | – |
